Experimental data published in ChEMBL document CHEMBL1155669, “Herbacic acid, a simple prototype of 5,5,5-trichloroleucine metabolites from the sponge Dysidea herbacea” (J Nat Prod, 2000).
Activity calls are given as the source filed them.

Assays:
Format in all cases: functional, organism-based
Candida albicans [1] = assay: Antifungal activity against fluconazole-resistant Candida albicans 96-489 at <100 ug/mL by microbroth dilution method
Candida albicans [2] = assay: Antifungal activity against Candida albicans ATCC 4503 at <100 ug/mL by microbroth dilution method
Pichia kudriavzevii = assay: Antifungal activity against Candida krusei at <100 ug/mL by microbroth dilution method
Nakaseomyces glabratus = assay: Antifungal activity against Candida glabrata at <100 ug/mL by microbroth dilution method

Measured: Activity

C[C@@H](C/C=C/C(=O)N(C)[C@@H](C[C@H](C)C(Cl)(Cl)Cl)C(=O)O)C(Cl)(Cl)Cl
inactive: Candida albicans [1] | Candida albicans [2] | Pichia kudriavzevii | Nakaseomyces glabratus
